From US9546164B2 (GENENTECH, INC., priority 2013, dated 2017)
Structures can show the parent of a compound that is named as a salt. Where two headings read alike, the source gives them in different places.

Biological target: hNav1.7 (Homo sapiens (Human), UniProt Q15858)
Experiment: Tritiated sulfonamide competitive binding to membranes from cells expressing hNav1.7 and the β1 subunit;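 further: Filter-bound radioactivity counted by liquid scintillation, nonspecific binding defined with excess unlabelled ligand, IC50 fitted to percent inhibition of specific binding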
[1] = read-out: Ligand Binding Assay, 100 pM [3H]compound, membranes with hNav1.7 and β1 subunit, 18 h, room temperature

Sequence of hNav1.7 (Q15858 other isoform, or with tags, fused parts or gaps): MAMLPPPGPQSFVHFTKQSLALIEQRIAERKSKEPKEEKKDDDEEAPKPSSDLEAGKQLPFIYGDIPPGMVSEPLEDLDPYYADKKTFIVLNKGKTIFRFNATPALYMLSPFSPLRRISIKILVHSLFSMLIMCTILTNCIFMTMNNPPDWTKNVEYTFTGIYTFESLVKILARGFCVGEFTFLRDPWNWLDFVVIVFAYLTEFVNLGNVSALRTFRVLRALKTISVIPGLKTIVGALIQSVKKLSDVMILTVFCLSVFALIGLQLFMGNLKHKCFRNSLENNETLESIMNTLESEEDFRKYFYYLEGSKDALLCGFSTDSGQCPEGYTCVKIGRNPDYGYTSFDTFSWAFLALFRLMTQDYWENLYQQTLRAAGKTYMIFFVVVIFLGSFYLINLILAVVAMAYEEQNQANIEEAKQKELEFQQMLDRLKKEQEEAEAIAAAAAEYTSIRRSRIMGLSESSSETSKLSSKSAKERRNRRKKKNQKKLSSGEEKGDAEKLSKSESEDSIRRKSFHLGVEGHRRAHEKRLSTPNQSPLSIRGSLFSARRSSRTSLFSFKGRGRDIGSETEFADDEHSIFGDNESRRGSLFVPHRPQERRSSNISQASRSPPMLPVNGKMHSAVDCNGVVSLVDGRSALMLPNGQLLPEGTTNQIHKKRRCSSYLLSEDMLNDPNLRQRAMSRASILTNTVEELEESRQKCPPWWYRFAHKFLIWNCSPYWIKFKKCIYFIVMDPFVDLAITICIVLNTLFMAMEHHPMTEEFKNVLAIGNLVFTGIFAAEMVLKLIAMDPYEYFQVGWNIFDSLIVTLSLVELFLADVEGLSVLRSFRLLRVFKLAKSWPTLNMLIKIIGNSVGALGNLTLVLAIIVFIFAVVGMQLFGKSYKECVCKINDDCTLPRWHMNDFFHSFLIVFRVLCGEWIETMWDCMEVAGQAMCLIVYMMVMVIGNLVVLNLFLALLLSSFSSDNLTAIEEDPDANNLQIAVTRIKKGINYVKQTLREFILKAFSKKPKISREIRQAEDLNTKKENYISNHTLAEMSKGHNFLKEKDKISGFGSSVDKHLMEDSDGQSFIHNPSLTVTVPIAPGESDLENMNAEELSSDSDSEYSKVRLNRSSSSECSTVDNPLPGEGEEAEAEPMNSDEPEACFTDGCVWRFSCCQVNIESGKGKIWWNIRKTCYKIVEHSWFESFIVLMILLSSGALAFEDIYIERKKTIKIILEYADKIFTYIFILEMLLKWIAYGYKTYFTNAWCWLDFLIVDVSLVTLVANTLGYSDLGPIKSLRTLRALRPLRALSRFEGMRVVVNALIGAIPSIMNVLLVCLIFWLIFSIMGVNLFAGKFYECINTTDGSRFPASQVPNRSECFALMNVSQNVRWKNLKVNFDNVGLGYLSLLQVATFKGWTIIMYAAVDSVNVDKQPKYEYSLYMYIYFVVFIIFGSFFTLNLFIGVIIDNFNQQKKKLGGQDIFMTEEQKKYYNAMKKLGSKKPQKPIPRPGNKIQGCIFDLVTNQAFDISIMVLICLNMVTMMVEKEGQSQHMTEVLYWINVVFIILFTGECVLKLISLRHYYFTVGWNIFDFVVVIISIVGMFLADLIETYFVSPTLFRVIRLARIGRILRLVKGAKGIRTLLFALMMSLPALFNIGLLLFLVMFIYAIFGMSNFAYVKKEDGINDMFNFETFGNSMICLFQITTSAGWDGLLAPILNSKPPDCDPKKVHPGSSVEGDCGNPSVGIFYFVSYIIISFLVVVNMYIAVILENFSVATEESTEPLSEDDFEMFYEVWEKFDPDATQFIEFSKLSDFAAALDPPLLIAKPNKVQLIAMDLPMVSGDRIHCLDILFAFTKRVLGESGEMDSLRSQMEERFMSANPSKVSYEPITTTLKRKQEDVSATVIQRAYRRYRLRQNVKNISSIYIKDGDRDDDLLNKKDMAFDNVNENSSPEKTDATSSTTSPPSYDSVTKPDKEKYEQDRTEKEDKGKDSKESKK
Sequence of hNav1.7 (Q07699 19-218 partner): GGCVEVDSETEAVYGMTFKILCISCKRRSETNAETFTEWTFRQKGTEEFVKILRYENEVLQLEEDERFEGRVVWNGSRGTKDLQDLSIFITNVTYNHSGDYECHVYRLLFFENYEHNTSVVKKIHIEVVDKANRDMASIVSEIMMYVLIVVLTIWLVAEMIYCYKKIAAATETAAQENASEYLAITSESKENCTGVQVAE

IC50 [1] | IC50 | Compound
 | 7120 nM | CC(C)(C)N1CCC[C@@H](Oc2cc(F)c(C(=O)NS(C)(=O)=O)cc2C2CC2)C1 [Example 538, (R)-4-((1-(tert-butyl)piperidin-3-yl)oxy)-5-cyclopropyl-2-fluoro-N-(methylsulfonyl)benzamide]
22.7 nM |  | O=C(NS(=O)(=O)N1CCC1)c1cc(Cl)c(OCC2CCN(Cc3cc(Cl)cc(OC(F)(F)F)c3)CC2)cc1F [Example 408, N-(azetidin-1-ylfulfonyl)-5-chloro-4-((1-(3-chloro-5-(trifluoromethoxy)benzyl)piperidin-4-yl)methoxy)-2-fluorobenzamide, trifluoroacetic acid suit]
7.7 nM |  | CCS(=O)(=O)NC(=O)c1cc(C2CC2)c(OCC2CCN([C@H](C)c3ccc(F)cc3Cl)CC2)cc1F (single isomer, unassigned) [Example 246]
59.9 nM |  | CS(=O)(=O)NC(=O)c1cc(C2CC2)c(OCC2(F)CCN(Cc3cc(C(F)(F)F)cc(C4CC4)n3)CC2)cc1F [Example 596]
47 nM |  | COc1ccc(CN2CCC(COc3cc(F)c(C(=O)NS(C)(=O)=O)cc3C3CC3)CC2)cc1Cl [Example 183, 4-((1-(3-Chloro-4-methoxybenzyl)piperidin-4-yl)methyoxy)-5-cyclopropyl-2-fluoro-N-(methylsulfonyl)benzamide]
6.4 nM |  | CC1(COc2cc(F)c(C(=O)NS(C)(=O)=O)cc2C2CC2)CN(C(c2ccccc2)c2ccccc2)C1 [Example 68, 4-((1-benzhydryl-3-methylazetidin-3-yl)methoxy)-5-cyclopropyl-2-fluoro-N-(methylsulfonyl)benzamide]
6.7 nM |  | CCS(=O)(=O)NC(=O)c1cc(C2CC2)c(OCC2CCN(Cc3cc(C(F)(F)F)cc(C4CC4)n3)CC2)cc1F [Example 307, 5-cyclopropyl-4-((1-((6-cyclopropyl-4-(trifluoromethyl)pyridin-2-yl)methyl)piperidin-4-yl)methoxy)-N-(ethylsulfonyl)-2-fluorobenzamide]
 | 2.3 nM | CC(C)(c1cccc(Cl)c1)N1CCC[C@@H](Oc2cc(F)c(C(=O)NS(=O)(=O)C3CC3)cc2C2CC2)C1 [Example 530, (R)-4-((1-(2-(3-chlorophenyl)propan-2-yl)piperidin-3-yl)oxy)-5-cyclopropyl-N-(cyclopropylsulfonyl)-2-fluorobenzamide, trifluoroacetic acid salt]
0.8 nM |  | O=C(NS(=O)(=O)C1CC1)c1cc(C2CC2)c(OCC2CCN(C(c3ccccc3)c3cc(Cl)cc(Cl)c3)CC2)cc1F (stereo not drawn) [Example 411, 5-cyclopropyl-N-(cyclopropylsulfonyl)-4-((1-((3,5-dichlorophenyl)(phenyl)methyl)piperidin-4-yl)methoxy)-2-fluorobenzamide, trifluoroacetic acid salt]
54 nM |  | N#Cc1cc(C(=O)NS(=O)(=O)C2CC2)c(F)cc1OCC1CCN(Cc2cc(Cl)cc(OC(F)(F)F)c2)CC1 [Example 409, 4-((1-(3-chloro-5-(trifluoromethoxy)benzyl)piperidin-4-yl)methoxy)-5-cyano-N-(cyclopropylsulfonyl)-2-fluorobenzamide, trifluoroacetic acid salt]
9900 nM |  | CC(C)N(C(=O)CN1CCC(COc2cc(F)c(C(=O)NS(C)(=O)=O)cc2C2CC2)CC1)C(C)C [Example 180, 5-Cyclopropyl-4-((1-(2-(diisopropylamino)-2-oxoethyl)piperidin-4-yl)methoxy)-2-fluoro-N-(methylsulfonyl)benzamide]
5.42 nM |  | CS(=O)(=O)NC(=O)c1cc(C2CC2)c(OCC2CCN(Cc3ccccc3C(F)(F)F)CC2)cc1F [Example 159, 5-Cyclopropyl-2-fluoro-N-(methylsulfonyl)-4-((1-(2-(trifluoromethyl)-benzyl)piperidin-4-yl)methoxy)benzamide]
2.2 nM |  | C[C@@H](c1ccc(Cl)cc1Cl)N1CCC(COc2cc(F)c(C(=O)NS(C)(=O)=O)cc2C2CC2)CC1 [Example 238, (S)-5-cyclopropyl-4-((1-(1-(2,4-dichlorophenyl)ethyl)piperidin-4-yl)methoxy)-2-fluoro-N-(methylsulfonyl)benzamide]
11 nM |  | COC[C@@H](c1ccc(F)c(Cl)c1)N1CCC(COc2cc(F)c(C(=O)NS(C)(=O)=O)cc2C2CC2)CC1 (single isomer, unassigned) [Example 181]
76 nM |  | CS(=O)(=O)NC(=O)c1cc(Cl)c(OCC2CN(C(c3ccccc3)c3ccccc3)C2)cc1F [Example 59, 4-((1-benzhydrylazetidin-3-yl)methoxy)-5-chloro-2-fluoro-N-(methylsulfonyl)benzamide]
1380 nM |  | O=C(NS(=O)(=O)C1CC1)c1cc(C2CC2)c(OCC2CCN(S(=O)(=O)C3COC3)CC2)cc1F [Example 393, 5-cyclopropyl-N-(cyclopropylsulfonyl)-2-fluoro-4-((1-(oxetan-3-ylsulfonyl)piperidin-4-yl)methoxy)benzamide]
5.4 nM |  | Cc1cc(C)cc(CN2CCC[C@@H](Oc3cc(F)c(C(=O)NS(C)(=O)=O)cc3C3CC3)C2)c1 [Example 436, (R)-5-cyclopropyl-4-((1-(3,5-dimethylbenzyl)piperidin-3-yl)oxy)-2-fluoro-N-(methylsulfonyl)benzamide, trifluoroacetic acid salt]
 | 3.4 nM | C[C@H](c1cc(Cl)cc(Cl)c1)N1CCC(COc2cc(F)c(C(=O)NS(=O)(=O)C3CC3)cc2C2CC2)CC1 [Example 269, (R)-5-cyclopropyl-N-(cyclopropylsulfonyl)-4-((1-(1-(3,5-dichlorophenyl)ethyl)piperidin-4-yl)methoxy)-2-fluorobenzamide]
118 nM |  | CS(=O)(=O)NC(=O)c1cc(C2CC2)c(OCC2CN(Cc3ccc(Cl)c(F)c3)C2)cc1F [Example 133, 4-((1-(4-Chloro-3-fluorobenzyl)azetidin-3-yl)methoxy)-5-cyclopropyl-2-fluoro-N-(methylsulfonyl)benzamide]
31 nM |  | O=C(NS(=O)(=O)C1CC1)c1cc(C2CC2)c(OCC2CCN(C(=O)c3ccc(Cl)c(Cl)c3)CC2)cc1F [Example 233, 5-Cyclopropyl-N-(cyclopropylsulfonyl)-4-((1-(3,4-dichlorobenzoyl)piperidin-4-yl)methoxy)-2-fluorobenzamide]
100 nM |  | COC[C@H](c1ccc(Cl)c(Cl)c1)N1CCC(COc2cc(F)c(C(=O)NS(C)(=O)=O)cc2C2CC2)CC1 (single isomer, unassigned) [Example 265]
5.6 nM |  | CC(C)Oc1ncc(CN2CCC(COc3cc(F)c(C(=O)NS(C)(=O)=O)cc3C3CC3)CC2)cc1Cl [Example 128, 4-((1-((5-Chloro-6-isopropoxypyridin-3-yl)methyl)piperidin-4-yl)methoxy)-5-cyclopropyl-2-fluoro-N-(methylsulfonyl)benzamide]
 | 3.2 nM | O=C(NS(=O)(=O)N1CCC1)c1cc(C2CC2)c(O[C@@H]2CCCN(Cc3ccccc3Cl)C2)cc1F [Example 25, (R)—N-(azetidin-1-ylsulfonyl)-4-((1-(2-chlorobenzyl)piperidin-3-yl)oxy)-5-cyclopropyl-2-fluorobenzamide]
1.6 nM |  | CS(=O)(=O)NC(=O)c1cc(C2CC2)c(OCC2CCN(C(c3ccc(F)cc3Cl)C(F)(F)F)CC2)cc1F (stereo not drawn) [Example 300, 4-((1-(1-(2-chloro-4-fluorophenyl)-2,2,2-trifluoroethyl)piperidin-4-yl)methoxy)-5-cyclopropyl-2-fluoro-N-(methylsulfonyl)benzamide]
50 nM |  | CS(=O)(=O)NC(=O)c1cc(C2CC2)c(OCC2CCN(CC3(C(F)(F)F)CC3)CC2)cc1F [Example 252, 5-cyclopropyl-2-fluoro-N-(methylsulfonyl)-4-((1-((1-(trifluoromethyl)cyclopropyl)methyl)piperidin-4-yl)methoxy)benzamide]
439 nM |  | CS(=O)(=O)NC(=O)c1cc(C2CC2)c(OCC2CN([C@H](c3ccccc3)c3ccncc3)C2)cc1F [Example 153, (R)-5-Cyclopropyl-2-fluoro-N-(methylsulfonyl)-4-((1-(phenyl(pyridin-4-yl)methyl)azetidin-3-yl)methoxy)benzamide]
65 nM |  | O=C(NS(=O)(=O)C1CC1)c1cc(C2CC2)c(OCC2CCN(C(=O)c3ccc(Cl)cc3Cl)CC2)cc1F [Example 258, 5-Cyclopropyl-N-(cyclopropylsulfonyl)-4-((1-(2,4-dichlorobenzoyl)piperidin-4-yl)methoxy)-2-fluorobenzamide]

Compound | IC50 [1] | IC50
CS(=O)(=O)NC(=O)c1cc(C2CC2)c(OCC2CCN(Cc3ccccc3)CC2)cc1F [Example 87, 4-((1-Benzylpiperidin-4-yl)methoxy)-5-cyclopropyl-2-fluoro-N-(methylsulfonyl)benzamide] | 278 nM | 
O=C(NS(=O)(=O)C1CC1)c1cc(Cl)c(O[C@@H]2CCCN(Cc3ccc(F)cc3Cl)C2)cc1F.O=C(O)C(Cl)(Cl)Cl [Example 39, (R)-5-chloro-4-((1-(2-chloro-4-fluorobenzyl)piperidin-3-yl)oxy)-N-(cyclopropylsulfonyl)-2-fluorobenzamide, trichloroacetic acid salt] |  | 6.8 nM
CS(=O)(=O)NC(=O)c1cc(C2CC2)c(OC[C@@H]2C[C@H]3CC[C@@H](C2)N3Cc2cc(C(F)(F)F)ccc2Cl)cc1F [Example 399, 4-(((1R,3S,5S)-8-(2-chloro-5-(trifluoromethyl)benzyl)-8-azabicyclo[3.2.1]octan-3-yl)methoxy)-5-cyclopropyl-2-fluoro-N-(methylsulfonyl)benzamide, trifluoroacetic acid salt] | 4.6 nM | 
CS(=O)(=O)NC(=O)c1cc(C2CC2)c(OCC2CC3CCC(C2)N3Cc2cc(Cl)cc(Cl)c2)cc1F [Example 449, 5-cyclopropyl-4-(((1R,3R,5S)-8-(3,5-dichlorobenzyl)-8-azabicyclo[3.2.1]octan-3-yl)methoxy)-2-fluoro-N-(methylsulfonyl)benzamide] | 17.1 nM | 
5-Cyclopropyl-2-fluoro-N-(methylsulfonyl)-4-((1-(1-phenylethyl)-piperidin-4-yl)methoxy)benzamide [Example 146] | 276 nM | 
O=C(NS(=O)(=O)C1CC1)c1cc(C2CC2)c(CN2CCC(OCc3cc(Cl)cc(Cl)c3)CC2)cc1F [Example 512, 5-cyclopropyl-N-(cyclopropylsulfonyl)-4-((4-((3,5-dichlorobenzyl)oxy)piperidin-1-yl)methyl)-2-fluorobenzamide, trifluoroacetic acid salt] |  | 16.7 nM
